# Test results: US20240109865A1, “INDAZOLE COMPOUNDS AS KINASE INHIBITORS” (TYRA BIOSCIENCES, INC., priority 2020, published 2024)
# How the values were obtained:
# [1] = system: RT112/84 cells (FGFR3-fusion); assay: RT112/84 cancer cell line cell viability assay (CellTiter-Glo 2.0); assay type: cell-based; settings: Homo sapiens, 72 hours, Cell Titer Glo 2.0
# Outline: (§1)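 RT112/84, UM-UC-14 and KG-1 cells (10,000/well, RPMI1640 with 10% FBS) were treated with a 9-dose, 10-fold series starting at 30 μM, in triplicate, for 72 h at 37 °C. ATP was read by CellTiter-Glo 2.0 luminescence relative to DMSO controls, and IC50 was fitted with a 4-parameter sigmoidal model.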
# [2] = target: FGFR3-BAIAP2L1 Ba/F3 cells (Homo sapiens, UniProt P22607); assay: Ba/F3 cell viability assay (CellTiter-Glo 2.0), FGFR3-BAIAP2L1 Ba/F3; assay type: cell-based; settings: for Ba/F3 FGFR1/FGFR3 Selectivity: FGFR3 > FGFR1 selectivity ratio in Ba/F3 FGFR fusion cell based assays; for IC50: read-out: Ba/F3 Cells FGFR3 (IC50 nM), FGFR3-BAIAP2L1 Ba/F3 cells, 48 hours, Cell Titer Glo 2.0
# Outline: (§2)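 IL3-independent Ba/F3 lines driven by FGFR1-BCR or FGFR3-BAIAP2L1 fusions, in RPMI1640/10% FBS. 9-dose 10-fold series from 30 μM, triplicate, 48 h at 37 °C; viability by CellTiter-Glo 2.0 ATP luminescence relative to DMSO control, IC50 from 4-parameter sigmoidal fit.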
# [3] = system: UM-UC-14 cells (FGFR3(S249C)); assay: UM-UC-14 cancer cell line cell viability assay (CellTiter-Glo 2.0); assay type: cell-based; settings: UMUC14, 72 hours, Cell Titer Glo 2.0
# Outline: as §1
# FGFR1-BCR Ba/F3 cells = FGFR1-BCR Ba/F3 cells (Homo sapiens, UniProt P11362); assay: Ba/F3 cell viability assay (CellTiter-Glo 2.0), FGFR1-BCR Ba/F3; assay type: cell-based; settings: read-out: Ba/F3 Cells FGFR1 (IC50 nM), 48 hours, Cell Titer Glo 2.0
# Outline: as §2
# [4] = system: KG-1 cells (FGFR1-fusion); assay: KG-1 cancer cell line cell viability assay (CellTiter-Glo 2.0); assay type: cell-based; settings: Homo sapiens, 72 hours, Cell Titer Glo 2.0
# Outline: as §1
# FGFR3 (V555M) = FGFR3 (V555M) (Homo sapiens (Human), UniProt P22607, V555M); assay: Kinase assay, binding constants (Kd), kinase-tagged T7 phage, qPCR; settings: V555M mutant
# Outline: (§3)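 Competition binding: kinase-tagged T7 phage lysates mixed with immobilized biotinylated ligand on streptavidin beads plus compound (11-point 3-fold dilution series, 0.9% DMSO final). Bound kinase eluted with free ligand and quantified by qPCR. Kd from Hill equation fit, slope fixed at −1.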
# FGFR2 = FGFR2 (Homo sapiens (Human), UniProt P21802); assay: as above
# Outline: as §3
# FGFR3 = FGFR3 (Homo sapiens (Human), UniProt P22607); assay: as above
# Outline: as §3
# FGFR1 = FGFR1 (Homo sapiens (Human), UniProt P11362); assay: as above
# Outline: as §3
# FGFR4 = FGFR4 (Homo sapiens (Human), UniProt P22455); assay: as above
# Outline: as §3
# Sequence of FGFR2 (P21802 22-821): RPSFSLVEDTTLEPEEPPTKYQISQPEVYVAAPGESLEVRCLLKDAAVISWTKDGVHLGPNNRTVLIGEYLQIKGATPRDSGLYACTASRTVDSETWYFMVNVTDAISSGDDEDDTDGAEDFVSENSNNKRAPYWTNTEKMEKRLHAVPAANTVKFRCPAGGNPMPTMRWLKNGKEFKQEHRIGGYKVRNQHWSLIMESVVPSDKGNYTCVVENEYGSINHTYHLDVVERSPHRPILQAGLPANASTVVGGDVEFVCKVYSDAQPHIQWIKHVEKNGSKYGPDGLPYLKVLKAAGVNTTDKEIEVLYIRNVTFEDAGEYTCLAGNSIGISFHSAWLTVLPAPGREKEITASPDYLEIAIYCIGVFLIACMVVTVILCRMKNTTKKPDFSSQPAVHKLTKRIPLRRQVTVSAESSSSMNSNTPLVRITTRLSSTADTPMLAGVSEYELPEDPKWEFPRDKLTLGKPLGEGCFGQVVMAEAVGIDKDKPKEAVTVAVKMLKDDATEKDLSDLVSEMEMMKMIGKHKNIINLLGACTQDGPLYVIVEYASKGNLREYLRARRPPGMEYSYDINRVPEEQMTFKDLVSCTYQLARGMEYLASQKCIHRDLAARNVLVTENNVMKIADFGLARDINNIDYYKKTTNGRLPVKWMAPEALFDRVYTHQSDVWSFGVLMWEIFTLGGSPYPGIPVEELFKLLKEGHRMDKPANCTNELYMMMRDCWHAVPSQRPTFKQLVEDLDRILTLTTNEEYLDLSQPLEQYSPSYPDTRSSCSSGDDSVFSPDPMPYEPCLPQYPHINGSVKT
# Sequence of FGFR3 (V555M) (P22607 23-806 V555M): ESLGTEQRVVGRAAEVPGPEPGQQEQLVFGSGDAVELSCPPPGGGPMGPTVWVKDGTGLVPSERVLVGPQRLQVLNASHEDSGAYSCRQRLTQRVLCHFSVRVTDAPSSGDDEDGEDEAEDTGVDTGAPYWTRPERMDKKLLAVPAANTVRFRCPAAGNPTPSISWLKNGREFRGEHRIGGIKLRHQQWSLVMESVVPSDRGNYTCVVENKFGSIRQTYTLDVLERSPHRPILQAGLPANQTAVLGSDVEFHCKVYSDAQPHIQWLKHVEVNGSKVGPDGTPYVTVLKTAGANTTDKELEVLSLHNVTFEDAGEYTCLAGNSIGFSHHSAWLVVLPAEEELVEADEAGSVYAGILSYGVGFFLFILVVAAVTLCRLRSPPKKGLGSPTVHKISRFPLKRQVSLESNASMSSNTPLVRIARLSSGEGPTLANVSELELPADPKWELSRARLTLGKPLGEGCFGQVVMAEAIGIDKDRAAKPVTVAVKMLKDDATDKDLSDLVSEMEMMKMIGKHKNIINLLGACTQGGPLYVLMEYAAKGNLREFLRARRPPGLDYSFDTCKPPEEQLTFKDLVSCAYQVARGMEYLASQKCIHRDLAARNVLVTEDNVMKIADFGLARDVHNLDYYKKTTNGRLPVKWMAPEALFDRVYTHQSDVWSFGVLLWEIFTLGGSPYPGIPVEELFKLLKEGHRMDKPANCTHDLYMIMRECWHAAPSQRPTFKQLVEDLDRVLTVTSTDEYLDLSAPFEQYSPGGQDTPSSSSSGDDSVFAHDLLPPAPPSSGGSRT
# Sequence of FGFR1-BCR Ba/F3 cells (P11362 22-822 limits assumed, change not shown): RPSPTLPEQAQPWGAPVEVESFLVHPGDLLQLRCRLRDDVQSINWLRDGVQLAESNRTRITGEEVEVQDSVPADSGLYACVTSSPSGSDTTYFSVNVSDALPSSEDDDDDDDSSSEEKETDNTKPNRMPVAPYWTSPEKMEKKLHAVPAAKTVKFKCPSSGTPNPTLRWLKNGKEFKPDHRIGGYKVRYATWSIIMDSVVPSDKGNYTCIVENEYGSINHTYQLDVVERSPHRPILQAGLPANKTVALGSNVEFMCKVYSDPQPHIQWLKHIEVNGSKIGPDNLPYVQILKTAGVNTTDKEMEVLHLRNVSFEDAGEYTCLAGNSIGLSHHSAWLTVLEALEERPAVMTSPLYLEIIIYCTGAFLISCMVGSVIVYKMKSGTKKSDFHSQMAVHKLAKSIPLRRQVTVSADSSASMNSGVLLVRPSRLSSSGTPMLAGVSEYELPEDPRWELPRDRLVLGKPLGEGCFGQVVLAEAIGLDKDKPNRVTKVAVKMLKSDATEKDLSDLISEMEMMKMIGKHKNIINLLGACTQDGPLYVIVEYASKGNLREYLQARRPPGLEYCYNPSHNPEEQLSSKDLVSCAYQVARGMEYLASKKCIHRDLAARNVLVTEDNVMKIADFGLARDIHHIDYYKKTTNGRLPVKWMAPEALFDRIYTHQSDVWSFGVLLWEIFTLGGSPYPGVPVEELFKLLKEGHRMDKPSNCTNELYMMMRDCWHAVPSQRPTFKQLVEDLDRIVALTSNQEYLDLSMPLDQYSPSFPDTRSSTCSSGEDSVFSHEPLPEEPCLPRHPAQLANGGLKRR
# Sequence of FGFR1 (P11362 22-822): as the sequence (P11362 22-822 limits assumed, change not shown) above
# Sequence of FGFR4 (P22455 22-802): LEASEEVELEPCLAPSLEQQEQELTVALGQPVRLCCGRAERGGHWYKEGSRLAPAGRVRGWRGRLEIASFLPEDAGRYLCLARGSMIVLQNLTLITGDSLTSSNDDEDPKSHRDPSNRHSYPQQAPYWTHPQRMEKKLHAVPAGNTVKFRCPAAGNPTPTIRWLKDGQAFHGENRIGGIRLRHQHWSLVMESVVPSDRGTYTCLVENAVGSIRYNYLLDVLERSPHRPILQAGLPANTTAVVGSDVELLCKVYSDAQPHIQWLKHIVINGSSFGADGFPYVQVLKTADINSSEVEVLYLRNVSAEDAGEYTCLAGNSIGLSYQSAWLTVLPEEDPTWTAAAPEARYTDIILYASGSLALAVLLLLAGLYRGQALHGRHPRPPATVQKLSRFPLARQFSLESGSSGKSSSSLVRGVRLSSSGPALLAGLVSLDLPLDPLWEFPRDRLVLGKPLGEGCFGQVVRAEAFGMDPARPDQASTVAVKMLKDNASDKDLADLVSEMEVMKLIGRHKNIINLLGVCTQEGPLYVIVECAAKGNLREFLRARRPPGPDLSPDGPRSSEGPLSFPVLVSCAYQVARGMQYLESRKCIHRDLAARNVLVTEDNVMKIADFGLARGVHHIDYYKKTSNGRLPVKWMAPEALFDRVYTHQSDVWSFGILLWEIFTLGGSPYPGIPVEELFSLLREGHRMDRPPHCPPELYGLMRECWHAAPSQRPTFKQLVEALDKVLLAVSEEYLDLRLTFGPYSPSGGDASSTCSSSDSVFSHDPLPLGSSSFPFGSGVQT
# Sequence of FGFR3-BAIAP2L1 Ba/F3 cells (P22607 23-806 limits assumed, change not shown): as the sequence (P22607 23-806 V555M) above, with M533V counted along it
# Sequence of FGFR3 (P22607 23-806): as the sequence (P22607 23-806 V555M) above, with M533V counted along it
Compound,IC50 [1] [nM],Ba/F3 FGFR1/FGFR3 Selectivity [2],IC50 [2] [nM],IC50 [3] [nM],IC50 (FGFR1-BCR Ba/F3 cells) [nM],IC50 [4] [nM],Kd (FGFR3 (V555M)) [nM],Kd (FGFR2) [nM],Kd (FGFR3) [nM],Kd (FGFR1) [nM],Kd (FGFR4) [nM]
"C[C@@H](Oc1ccc2[nH]nc(-c3ccc(N4CCN(S(=O)(=O)N5CCN(C)CC5)CC4)nc3)c2c1)c1c(Cl)cncc1Cl [Example 8, 5-[(1R)-1-(3,5-dichloro-4-pyridyl)ethoxy]-3-[6-[4-(4-methylpiperazin-1-yl)sulfonylpiperazin-1-yl]-3-pyridyl]-1H-indazole]",1 to 20,16,1 to 20,1 to 20,100 to 300,100 to 300,1 to 20,20 to 100,1 to 20,20 to 100,1 to 20
"C[C@@H](Oc1ccc2[nH]nc(-c3ccc(N4CCC5(CCNC5=O)CC4)nc3)c2c1)c1c(Cl)cncc1Cl [Example 27, 8-[5-[5-[(1R)-1-(3,5-dichloro-4-pyridyl)ethoxy]-1H-indazol-3-yl]-2-pyridyl]-2,8-diazaspiro[4.5]decan-1-one]",1 to 20,24,1 to 20,1 to 20,100 to 300,100 to 300,1 to 20,1 to 20,1 to 20,20 to 100,1 to 20
"C[C@@H](Oc1ccc2[nH]nc(-c3cnc(N4CCNCC4)nc3)c2c1)c1c(Cl)cncc1Cl [Example 11, 5-[(1R)-1-(3,5-dichloro-4-pyridyl)ethoxy]-3-(2-piperazin-1-ylpyrimidin-5-yl)-1H-indazole]",1 to 20,9,1 to 20,20 to 100,100 to 300,20 to 100,1 to 20,1 to 20,1 to 20,1 to 20,1 to 20
"C[C@@H](Oc1ccc2[nH]nc(-c3cnc(N4CCC5(CCCN5C)CC4)nc3)c2c1)c1c(Cl)cncc1Cl [Example 52, 8-[5-[5-[(1R)-1-(3,5-dichloro-4-pyridyl)ethoxy]-1H-indazol-3-yl]pyrimidin-2-yl]-1-methyl-1,8-diazaspiro[4.5]decane]",20 to 100,7,20 to 100,20 to 100,100 to 300,20 to 100,1 to 20,20 to 100,1 to 20,1 to 20,1 to 20
"C[C@@H](Oc1ccc2[nH]nc(-c3cnc(N4CCNCC4)c(F)c3)c2c1)c1c(Cl)cncc1Cl [Example 10, 5-[(1R)-1-(3,5-Dichloro-4-pyridyl)ethoxy]-3-(5-fluoro-6-piperazin-1-yl-3-pyridyl)-1H-indazole]",1 to 20,9,1 to 20,1 to 20,20 to 100,20 to 100,1 to 20,1 to 20,1 to 20,1 to 20,1 to 20
"C[C@@H](Oc1ccc2[nH]nc(-c3ccc(N4CCN(C(=O)N(C)C)CC4)nc3)c2c1)c1c(Cl)cncc1Cl [Example 5, 4-[5-[5-[(1R)-1-(3,5-dichloro-4-pyridyl)ethoxy]-1H-indazol-3-yl]-2-pyridyl]-N,N-dimethyl-piperazine-1-carboxamide]",1 to 20,22,1 to 20,1 to 20,100 to 300,20 to 100,1 to 20,1 to 20,1 to 20,1 to 20,1 to 20
"C[C@@H](Oc1ccc2[nH]nc(-c3ccc(N4CCS(=O)(=O)CC4)nc3)c2c1)c1c(Cl)cncc1Cl [Example 1, 4-[5-[5-[(1R)-1-(3,5-dichloro-4-pyridyl)ethoxy]-1H-indazol-3-yl]-2-pyridyl]-1,4-thiazinane 1,1-dioxide]",1 to 20,33,1 to 20,1 to 20,100 to 300,100 to 300,1 to 20,1 to 20,1 to 20,1 to 20,1 to 20
